# Measurements published in publication PMC2747051 (Biochemistry, 2009).
# Legend:
# [1] = test system: MoeGT1 (Streptomyces viridosporus); test: LC/MS conversion time course; format: biochemical; conditions: donor 1 mM, 40 uM compound 7, 800 nM enzyme, 5 mM MgCl2, pH 7.5, 37 °C
# [2] = test system: MoeE5 (Streptomyces viridosporus); test: anion-exchange HPLC; format: biochemical; conditions: 1 mM UDP-GlcUA, 1 uM enzyme, 20 mM Tris-HCl pH 7.5, 37 °C, 2 h
smiles,measurement,setting,value
O=C(O)[C@H]1O[C@H](OP(=O)(O)OP(=O)(O)OC[C@H]2O[C@@H](n3ccc(=O)[nH]c3=O)[C@H](O)[C@@H]2O)[C@H](O)[C@@H](O)[C@H]1O [UDP-GalUA],LC/MS conversion time course,[1],showed a clear preference for UDP-GalUA over UDP-GlcUA
same,anion-exchange HPLC,[2],we conclude that MoeE5 epimerizes UDP-GlcUA to UDP-GalUA
